In patent US20240025887A1, “THIENYL AND CYCLOALKYL AMINOPYRIMIDINE COMPOUNDS AS INHIBITORS OF NUAK KINASES, COMPOSITIONS AND USES THEREOF” (Ontario Institute for Cancer Research (OICR), priority 2021, published 2024):
pIC50: −log10 of the molar value.

How the values were obtained:
Type in all cases: biochemical
NUAK1 = biological target: T1, NUAK1 (Homo sapiens, UniProt O60285); assay: NUAK1 counter screen
T1 sequence (O60285 1-661): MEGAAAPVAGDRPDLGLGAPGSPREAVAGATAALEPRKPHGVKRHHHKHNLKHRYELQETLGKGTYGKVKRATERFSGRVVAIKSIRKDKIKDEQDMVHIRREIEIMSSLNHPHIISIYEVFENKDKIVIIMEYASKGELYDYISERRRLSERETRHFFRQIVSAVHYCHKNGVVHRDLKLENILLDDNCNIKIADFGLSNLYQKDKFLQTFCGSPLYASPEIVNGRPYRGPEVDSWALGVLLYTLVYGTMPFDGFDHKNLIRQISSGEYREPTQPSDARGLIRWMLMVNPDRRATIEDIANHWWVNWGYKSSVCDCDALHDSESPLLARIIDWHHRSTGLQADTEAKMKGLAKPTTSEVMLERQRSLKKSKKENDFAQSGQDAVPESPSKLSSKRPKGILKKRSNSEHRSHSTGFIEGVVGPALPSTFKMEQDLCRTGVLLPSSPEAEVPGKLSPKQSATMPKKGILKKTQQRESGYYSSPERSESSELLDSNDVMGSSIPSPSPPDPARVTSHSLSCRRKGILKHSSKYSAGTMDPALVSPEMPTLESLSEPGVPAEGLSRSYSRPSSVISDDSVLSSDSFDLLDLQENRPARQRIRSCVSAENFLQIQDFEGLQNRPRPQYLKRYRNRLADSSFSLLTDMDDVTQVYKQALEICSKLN
Outline: (§1)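 Radiometric assay with full-length recombinant NUAK2 in 8 mM MOPS pH 7.0, 0.2 mM EDTA, 10 mM magnesium acetate, 300 μM peptide substrate and [33P]-ATP, 40 min at room temperature. Phosphoric acid stop, filter capture, scintillation counting. Aurora A and NUAK1 used as counter screens.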

Aurora A = biological target: T2, Aurora A (Homo sapiens, UniProt O14965); assay: Aurora A counter screen; details: read-out: AUR-A (IC50)
T2 sequence (O14965 1-403): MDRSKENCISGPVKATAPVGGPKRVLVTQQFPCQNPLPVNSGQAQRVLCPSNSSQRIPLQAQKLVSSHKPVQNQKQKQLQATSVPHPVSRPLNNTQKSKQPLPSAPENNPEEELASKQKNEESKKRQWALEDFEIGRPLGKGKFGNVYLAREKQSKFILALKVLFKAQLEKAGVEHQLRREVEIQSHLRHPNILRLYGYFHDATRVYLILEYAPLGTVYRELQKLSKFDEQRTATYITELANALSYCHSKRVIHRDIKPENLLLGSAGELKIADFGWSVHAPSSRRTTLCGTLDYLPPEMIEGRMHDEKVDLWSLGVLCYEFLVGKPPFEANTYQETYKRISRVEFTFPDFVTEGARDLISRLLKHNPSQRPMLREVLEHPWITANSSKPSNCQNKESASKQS
Outline: as §1

NUAK2 (h) = biological target: T3, NUAK2 (h) (Homo sapiens, UniProt Q9H093); assay: NUAK2 enzymatic assay (radiometric, Eurofins); details: radiometric, full-length recombinant enzyme
T3 construct: This assay was done radiometrically using full-length, recombinant enzyme; purchased Eurofins
T3 sequence (Q9H093 1-628): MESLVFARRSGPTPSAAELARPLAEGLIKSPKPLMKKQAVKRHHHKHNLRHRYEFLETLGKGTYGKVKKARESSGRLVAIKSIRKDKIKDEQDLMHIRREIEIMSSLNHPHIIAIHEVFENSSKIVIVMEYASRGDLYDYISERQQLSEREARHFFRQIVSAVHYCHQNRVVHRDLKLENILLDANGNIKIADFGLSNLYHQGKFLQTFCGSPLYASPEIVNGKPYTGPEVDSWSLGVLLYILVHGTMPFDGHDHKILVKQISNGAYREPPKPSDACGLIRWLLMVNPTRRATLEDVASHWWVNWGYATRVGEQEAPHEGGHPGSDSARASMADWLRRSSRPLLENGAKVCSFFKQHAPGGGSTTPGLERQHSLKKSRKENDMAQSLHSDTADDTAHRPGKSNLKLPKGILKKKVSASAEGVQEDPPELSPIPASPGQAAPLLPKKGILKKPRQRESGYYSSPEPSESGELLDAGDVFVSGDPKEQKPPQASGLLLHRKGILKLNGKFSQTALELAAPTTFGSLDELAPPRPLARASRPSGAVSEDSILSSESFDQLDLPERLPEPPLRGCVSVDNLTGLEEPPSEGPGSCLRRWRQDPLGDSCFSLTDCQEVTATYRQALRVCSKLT
Outline: as §1

CN1CCCN(C2CCN(c3ccc(Nc4ncc(Cl)c(Nc5ccsc5C(N)=O)n4)c(OC(F)F)c3)CC2)CC1 [Compound I-72, 3-((5-chloro-2-((2-(difluoromethoxy)-4-(4-(4-methyl-1,4-diazepan-1-yl)piperidin-1-yl)phenyl)amino)pyrimidin-4-yl)amino)thiophene-2-carboxamide]
pIC50 (NUAK1): 7.00 to 7.96
pIC50 (Aurora A): 6.00 to 7.00
pIC50 (NUAK2 (h)): 7.00 to 7.96

NC(=O)c1ccsc1Nc1nc(Nc2ccc(N3CCCC3)cc2OC(F)F)ncc1Cl [Compound I-31, 2-((5-chloro-2-((2-(difluoromethoxy)-4-(pyrrolidin-1-yl)phenyl)amino)pyrimidin-4-yl)amino)thiophene-3-carboxamide]
pIC50 (NUAK1): 6.00 to 7.00
pIC50 (Aurora A): < 6.00
pIC50 (NUAK2 (h)): < 6.00

CN(C1CCCCC1)C1CCN(c2ccc(Nc3ncc(Cl)c(Nc4ccsc4C(N)=O)n3)c(OC(F)F)c2)CC1 [Compound I-73, 3-((5-chloro-2-((4-(4-(cyclohexyl(methyl)amino)piperidin-1-yl)-2-(difluoromethoxy)phenyl)amino)pyrimidin-4-yl)amino)thiophene-2-carboxamide]
pIC50 (NUAK1): 7.00 to 7.96
pIC50 (Aurora A): 6.00 to 7.00
pIC50 (NUAK2 (h)): 7.00 to 7.96

CN1CCC(c2ccc(Nc3ncc(Cl)c(Nc4ccsc4C(N)=O)n3)c(OC(F)F)c2)CC1 [Compound I-25, 3-((5-chloro-2-((2-(difluoromethoxy)-4-(1-methylpiperidin-4-yl)phenyl)amino)pyrimidin-4-yl)amino)thiophene-2-carboxamide]
pIC50 (NUAK1): 7.00 to 7.96
pIC50 (Aurora A): 6.00 to 7.00
pIC50 (NUAK2 (h)): 7.00 to 7.96

NC(=O)c1sccc1Nc1nc(Nc2ccc(N3CCC(N4CCN5CCC[C@@H]5C4)CC3)cc2OC(F)F)ncc1Cl [Compound I-71, (R)-3-((5-chloro-2-((2-(difluoromethoxy)-4-(4-(hexahydropyrrolo[1,2-a]pyrazin-2(1H)-yl)piperidin-1-yl)phenyl)amino)pyrimidin-4-yl)amino)thiophene-2-carboxamide]
pIC50 (NUAK1): 7.00 to 7.96
pIC50 (Aurora A): 7.00 to 7.96
pIC50 (NUAK2 (h)): 7.00 to 7.96

CN1C[C@H]2C[C@@H]1CN2c1ccc(Nc2ncc(Cl)c(Nc3sccc3C(N)=O)n2)c(OC(F)F)c1 [Compound I-18, 2-((5-chloro-2-((2-(difluoromethoxy)-4-((1R,4R)-5-methyl-2,5-diazabicyclo[2.2.1]heptan-2-yl)phenyl)amino)pyrimidin-4-yl)amino)thiophene-3-carboxamide]
pIC50 (NUAK1): 7.00 to 7.96
pIC50 (Aurora A): 6.00 to 7.00
pIC50 (NUAK2 (h)): 8.00 to 10.00

C[C@H]1CN(C)CCN1c1ccc(Nc2ncc(Cl)c(Nc3ccsc3C(N)=O)n2)c(OC(F)F)c1 [Compound I-29, (S)-3-((5-chloro-2-((2-(difluoromethoxy)-4-(2,4-dimethylpiperazin-1-yl)phenyl)amino)pyrimidin-4-yl)amino)thiophene-2-carboxamide]
pIC50 (NUAK1): 7.00 to 7.96
pIC50 (Aurora A): 6.00 to 7.00
pIC50 (NUAK2 (h)): 7.00 to 7.96

CC(C)N1CCN(C2CCN(c3ccc(Nc4ncc(Cl)c(Nc5ccsc5C(N)=O)n4)c(OC(F)F)c3)CC2)CC1 [Compound I-62, 3-((5-chloro-2-((2-(difluoromethoxy)-4-(4-(4-isopropylpiperazin-1-yl)piperidin-1-yl)phenyl)amino)pyrimidin-4-yl)amino)thiophene-2-carboxamide]
pIC50 (NUAK1): 7.00 to 7.96
pIC50 (Aurora A): 6.00 to 7.00
pIC50 (NUAK2 (h)): 7.00 to 7.96

NC(=O)c1sccc1Nc1nc(Nc2ccc(N3CCC(N4CCCCC4)CC3)cc2OC(F)F)ncc1C(F)(F)F [Compound I-76]
pIC50 (NUAK1): 7.00 to 7.96
pIC50 (Aurora A): 6.00 to 7.00
pIC50 (NUAK2 (h)): 8.00 to 10.00

Cc1cnc(Nc2ccc(N3CCN(C(C)C)CC3)cc2OC(F)F)nc1Nc1ccsc1C(N)=O [Compound I-17, 3-((2-((2-(difluoromethoxy)-4-(4-isopropylpiperazin-1-yl)phenyl)amino)-5-methylpyrimidin-4-yl)amino)thiophene-2-carboxamide]
pIC50 (NUAK1): 7.00 to 7.96
pIC50 (Aurora A): 6.00 to 7.00
pIC50 (NUAK2 (h)): 7.00 to 7.96

NC(=O)c1sccc1Nc1nc(Nc2ccc(N3CCC(N4CCOCC4)CC3)cc2OC(F)F)ncc1Cl [Compound I-43, 3-((5-chloro-2-((2-(difluoromethoxy)-4-(4-morpholinopiperidin-1-yl)phenyl)amino)pyrimidin-4-yl)amino)thiophene-2-carboxamide]
pIC50 (NUAK1): 7.00 to 7.96
pIC50 (Aurora A): 6.00 to 7.00
pIC50 (NUAK2 (h)): 8.00 to 10.00

CN1C[C@H]2C[C@@H]1CN2c1ccc(Nc2ncc(Cl)c(Nc3ccsc3C(N)=O)n2)c(OC(F)F)c1 [Compound I-9, 3-((5-chloro-2-((2-(difluoromethoxy)-4-((1R,4R)-5-methyl-2,5-diazabicyclo[2.2.1]heptan-2-yl)phenyl)amino)pyrimidin-4-yl)amino)thiophene-2-carboxamide]
pIC50 (NUAK1): 7.00 to 7.96
pIC50 (Aurora A): 6.00 to 7.00
pIC50 (NUAK2 (h)): 8.00 to 10.00

NC(=O)c1sccc1Nc1nc(Nc2ccc(N3CCCC3)cc2OC(F)F)ncc1Cl [Compound I-28, 3-((5-chloro-2-((2-(difluoromethoxy)-4-(pyrrolidin-1-yl)phenyl)amino)pyrimidin-4-yl)amino)thiophene-2-carboxamide]
pIC50 (NUAK1): 7.00 to 7.96
pIC50 (Aurora A): 6.00 to 7.00
pIC50 (NUAK2 (h)): 6.00 to 7.00

CN1CCC(N(C)c2ccc(Nc3ncc(Cl)c(Nc4ccsc4C(N)=O)n3)c(OC(F)F)c2)CC1 [Compound I-66, 3-((5-chloro-2-((2-(difluoromethoxy)-4-(methyl(1-methylpiperidin-4-yl)amino)phenyl)amino)pyrimidin-4-yl)amino)thiophene-2-carboxamide]
pIC50 (NUAK1): 7.00 to 7.96
pIC50 (Aurora A): 6.00 to 7.00
pIC50 (NUAK2 (h)): 7.00 to 7.96

CN1C[C@@H]2CN(c3ccc(Nc4ncc(Cl)c(Nc5ccsc5C(N)=O)n4)c(OC(F)F)c3)C[C@@H]2C1 [Compound I-57, 3-((5-chloro-2-((2-(difluoromethoxy)-4-((3aR,6aS)-5-methylhexahydropyrrolo[3,4-c]pyrrol-2(1H)-yl)phenyl)amino)pyrimidin-4-yl)amino)thiophene-2-carboxamide]
pIC50 (NUAK1): 8.00 to 10.00
pIC50 (Aurora A): 6.00 to 7.00
pIC50 (NUAK2 (h)): 8.00 to 10.00

CN1CCN(c2ccc(Nc3nccc(Nc4ccsc4C(N)=O)n3)c(OC(F)F)c2)CC1 [Compound I-3, 3-((2-((2-(difluoromethoxy)-4-(4-methylpiperazin-1-yl)phenyl)amino)pyrimidin-4-yl)amino)thiophene-2-carboxamide]
pIC50 (NUAK1): 6.00 to 7.00
pIC50 (Aurora A): < 6.00
pIC50 (NUAK2 (h)): 6.00 to 7.00

CN1CCN(C2CCN(c3ccc(Nc4ncc(Cl)c(Nc5ccsc5C(N)=O)n4)c(OC(F)F)c3F)CC2)CC1 [Compound I-40, 3-((5-chloro-2-((2-(difluoromethoxy)-3-fluoro-4-(4-(4-methylpiperazin-1-yl)piperidin-1-yl)phenyl)amino)pyrimidin-4-yl)amino)thiophene-2-carboxamide]
pIC50 (NUAK1): 6.00 to 7.00
pIC50 (Aurora A): < 6.00
pIC50 (NUAK2 (h)): 6.00 to 7.00

C[C@@H]1CN(C2CCN(c3ccc(Nc4ncc(C(F)(F)F)c(Nc5ccsc5C(N)=O)n4)c(OC(F)F)c3)CC2)C[C@H](C)N1C [Compound I-67, 3-((2-((2-(difluoromethoxy)-4-(4-((3R,5S)-3,4,5-trimethylpiperazin-1-yl)piperidin-1-yl)phenyl)amino)-5-(trifluoromethyl)pyrimidin-4-yl)amino)thiophene-2-carboxamide]
pIC50 (NUAK1): 7.00 to 7.96
pIC50 (Aurora A): 6.00 to 7.00
pIC50 (NUAK2 (h)): 7.00 to 7.96
